Molecular target: T1, Tyrosinase (Agaricus bisporus) (UniProt O42713)
T1 sequence (whole entry): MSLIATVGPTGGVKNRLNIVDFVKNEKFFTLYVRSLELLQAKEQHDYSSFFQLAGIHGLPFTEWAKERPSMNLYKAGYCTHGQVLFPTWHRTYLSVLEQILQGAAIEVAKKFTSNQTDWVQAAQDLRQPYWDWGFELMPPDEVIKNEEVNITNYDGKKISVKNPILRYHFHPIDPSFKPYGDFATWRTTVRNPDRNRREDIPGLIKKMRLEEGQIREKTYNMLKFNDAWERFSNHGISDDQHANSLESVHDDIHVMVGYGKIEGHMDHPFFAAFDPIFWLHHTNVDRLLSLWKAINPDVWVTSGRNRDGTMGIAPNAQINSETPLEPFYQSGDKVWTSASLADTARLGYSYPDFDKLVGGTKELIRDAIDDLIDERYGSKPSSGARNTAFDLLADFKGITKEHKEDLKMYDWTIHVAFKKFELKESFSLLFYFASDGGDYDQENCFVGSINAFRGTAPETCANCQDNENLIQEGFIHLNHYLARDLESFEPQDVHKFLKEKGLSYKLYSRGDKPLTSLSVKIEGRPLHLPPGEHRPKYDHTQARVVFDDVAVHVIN
Assay: Inhibition of mushroom tyrosinase at 2 mM

Compound | inhibition
NNC(N)=S [THIOSEMICARBAZIDE] | 39.9%
COc1ccc(C(C)=O)cc1 [P-METHOXY-ACETOPHENONE] | 47.2%

Molecular target: T1, Tyrosinase (Agaricus bisporus)
Assay: Inhibition of mushroom tyrosinase at 0.10 mM

inhibition | Compound
47% | NC(=S)N/N=C(/C(=O)c1ccccc1)c1ccccc1

Molecular target: T2, Tyrosinase (Agaricus bisporus, UniProt O42713)
T2 sequence (O42713 whole entry): T1 sequence (whole entry)

IC50 | Compound
0.34 µM | C/C(=N/NC(N)=S)c1ccccc1 [ACETOPHENONE-THIOSEMICARBAZONE]
0.31 µM | C/C(=N/NC(N)=S)c1ccc(O)cc1
0.82 µM | C/C(=N/NC(N)=S)c1cccnc1
0.52 µM | C/C(=N/NC(N)=S)c1ccc(Br)cc1
0.88 µM | C/C(=N/NC(N)=S)c1cnccn1
0.27 µM | C/C(=N/NC(N)=S)c1ccc(C)cc1
0.17 µM | C/C(=N/NC(N)=S)c1ccc(F)cc1

The remaining lines, values behind:

Compound | IC50
C/C(=N/NC(N)=S)c1c(O)cc(O)cc1O | 22 µM
NC(=S)N/N=C(\c1ccccc1)C(O)c1ccccc1 (stereo unspecified) | 55.5 µM
C/C(CCc1ccc(O)cc1)=N/NC(N)=S | 0.54 µM
NNC(N)=S [THIOSEMICARBAZIDE] | 2000 µM
C/C(=N/NC(N)=S)c1ccc(C(C)C)cc1 | 1 µM
COc1ccc(/C=C/C(=O)O)cc1 [4-METHOXYCINNAMIC ACID] | 410 µM
O=c1cccccc1O [TROPOLONE] | 0.4 µM
COc1ccc(C/C(C)=N\NC(N)=S)cc1 | 0.42 µM
COc1ccc(C(C)=O)cc1 [P-METHOXY-ACETOPHENONE] | 2000 µM
C/C(=N/NC(N)=S)c1ccc(/C(C)=N\NC(N)=S)cc1 | 0.15 µM
CC(=O)c1ccccc1 [ACETOPHENONE] | 850 µM
C/C(=N/NC(N)=S)c1ccc(O)cc1O | 0.58 µM
COc1ccc(/C(C)=N\NC(N)=S)cc1 | 0.11 µM
NC(=S)N/N=C(/C(=O)c1ccccc1)c1ccccc1 | 100 µM
CC(=O)c1ccc(F)cc1 | 990 µM
C/C(=N/NC(N)=S)c1cccs1 | 0.14 µM

Reference: ChEMBL document CHEMBL1144719, “1-(1-Arylethylidene)thiosemicarbazide derivatives: a new class of tyrosinase inhibitors” (Bioorg Med Chem, 2008)
